How the values were obtained:
Type in all cases: in vivo
[1] = tested on: corn stalk rot susceptible hybrids; test: Greenhouse seedling emergence trial for seed safety of treated corn seed; details: number of plants emerged at day 7, five plants per pot
Experimental: Seeds treated with chemistry were evaluated for seed safety in greenhouse emergence trials. Seed treatment active ingredients were combined in a slurry mix with colorant, polymer, and water at the recommended rates and allowed to mix thoroughly. Using a Gustafson BMC lab treater the seed batch was deposited in the BMC coater and treatment slurry was injected and allowed to tumble for 35-40 seconds before being ejected into a bulk collection bin and transferred to a paper storage bag. Standard corn stalk rot susceptible hybrids were planted using six pot replicates of five plants per pot. The treatments were randomized in RCBD, blocked by GH watering trays. Planting media consisted of 3.5 inch pots with the following media: US10 soil and 50/50 mix of US10/REDIEARTH. Replicates were placed perpendicular to the greenhouse temperature gradient.
Initial daily emergence counts at spike emergence of first treatment, continued until emergence was complete in untreated control (7-10 days after planting). The final stand was calculated as the number of plants emerged at day 7. The stand AUC was calculated as the area under the emergence curve.

[2] = tested on: Colletotrichum graminicola; test: Field trial, Anthracnose stalk rot disease severity after stalk wounding and inoculation; details: 60 g ai/100 kg seed; Acceleron 2013 base; N=3 locations; control (surface wounding) 2.9
Experimental: Field trials were conducted to evaluate seed treatments for efficacy and yield. Field plots contained a single row or up to 4 rows by 20-40 feet. Smallest plot size was a single row by 20 feet. Four replications were typically used. The hybrids selected for the study were typically moderately susceptible to Anthracnose stalk rot, which indicates a susceptibility rating of at least 5-6 on a 9 point scale (1=highly resistant, 9=highly susceptible). […] The typical growth stage for field inoculation was […]). For disease ratings, stalks were surface wounded using implements with needles that either provided shallow scratches on the surface of the stalk ( 1 cm depth) or shallow piercing wounds ( 1 cm depth). Concurrent with surface wounding, a spore suspension of Colletotrichum graminicola (C. graminicola) conidia is sprayed onto wounded area or injected into shallow wounds. The total volume of spore suspension applied was in the range of 1-5 mL. […] Disease development was monitored in control treatments and disease evaluations were usually targeted when disease index rating reached approximately 5 on a 1-9 scale in control treatments. […] 10 stalks were assessed per plot. […] The stalks were split and the number of internodes with disease symptoms was counted starting at the internode above top node with brace roots (disease incidence rating). […]

[3] = tested on: Colletotrichum graminicola; test: Field yield trial, seed treatments in inoculated soil plots; details: Acceleron 2013 base, N=10 locations, control 164.4
Experimental: (§1) Field trials were conducted to evaluate seed treatments for efficacy and yield. Field plots contained a single row or up to 4 rows by 20-40 feet. Smallest plot size was a single row by 20 feet. Four replications were typically used. The hybrids selected for the study were typically moderately susceptible to Anthracnose stalk rot, which indicates a susceptibility rating of at least 5-6 on a 9 point scale (1=highly resistant, 9=highly susceptible).
(§2) The typical growth stage for field inoculation was VT/R1 (tasseling/silking). For disease ratings, stalks were surface wounded using implements with needles that either provided shallow scratches on the surface of the stalk (˜1 cm depth) or shallow piercing wounds (˜1 cm depth). Concurrent with surface wounding, a spore suspension of Colletotrichum graminicola (C. graminicola) conidia is sprayed onto wounded area or injected into shallow wounds. The total volume of spore suspension applied was in the range of 1-5 mL. Yield trials were soil inoculated or non-inoculated (natural pressure). For soil inoculation the fungus was grown on sorghum seed and the infested sorghum seed was placed in furrow at planting of the trials.
(§3) Yield was determined in the following manner. The center two rows of the plot were harvested or both rows if it was a two row plot. The weight and percent moisture were recorded for each plot grain sample. The recorded plot weight and % moisture were converted to standardized weight using standard moisture of 15.5%. Each plot was normalized to kg/ha by interpolating plot yield area to hectares. Yield in bushels/acre (bu/A) was determined by interpolating plot yield area to acre and conversion to bu/A using a standard corn bushel weight of 56 lb.
All seeds, including control, were treated with Acceleron 2013 commercial seed treatment (disease control+insect control) as a base. N=10 locations.

corn = test: Field yield trials, seed treatments in non-inoculated soil plots (natural pressure); details: Acceleron 2013 base; for Yield Trial 1: N=22 locations, control 174.9; for Yield Trial 2: N=24 locations, control 174.4
Experimental: as §1, §2, §3
All seeds, including control, were treated with Acceleron 2013 commercial seed treatment (disease+insect control) as a base. N=22 locations.
All seeds, including control, were treated with Acceleron 2013 commercial seed treatment (disease+insect control) as a base. N=24 locations.

Fusarium verticillioides = test: Tray seedling test, efficacy of seed treatment against Fusarium verticillioides; details: FS100, 30 g ai/100 kg seeds; untreated (% damage) 26%
Experimental: (§4) The seed tested (Amadeo harvest 2008, TKW 331,3) was seeded in trays 20×20×6 cm, with 9 holes for water release in field soil/quartz sand mix (1:1). Two repetitions with 25 kernels each were treated using standard seed treatment techniques. Each tray contained a single isolate of either Fusarium verticillioides G679, Fusarium verticillioides S039/07, Fusarium verticillioides S149/08, Colletotrichum graminicola BF0911 or Colletotrichum graminicola CG-1. The fungi were grown on sterile wheat grains. Thereafter, wheat grains were roughly ground after incubation and dried. For inoculation, either 5 or 15 ml of inoculum were scattered between the seeds at sowing, followed by incubation for 7 days at 10° C., followed by 7 days 24° C./15° C. (day/night period). Plants were evaluated for a) initial emergence (number of plants), b) final emergence (number of plants), c) disease level. Seedlings were classified in 3 categories: low, moderate or sevre necrosis. The disease score was calculated as follows: […]

[4] = tested on: Colletotrichum graminicola; test: Tray seedling test, efficacy of seed treatment against Colletotrichum graminicola; details: FS100, 30 g ai/100 kg seeds; untreated (% damage) 22%
Experimental: as §4

Row | Structure (SMILES) | Final Stand ([1]; 25 g ai/100 kg seed) | Final Stand ([1]; 50 g ai/100 kg seed) | Final Stand ([1]; 100 g ai/100 kg seed) | Final Stand ([1]; 200 g ai/100 kg seed) | Disease Severity (nodes ≧50% necrosis) [2] [nodes ≧50% necrosis] | Yield ([3]; 30 g/100 Kg seed) [bu/A] | Yield ([3]; 60 g/100 Kg seed) [bu/A] | Yield ([3]; 90 g/100 Kg seed) [bu/A] | Yield Trial 1 (corn; 30 g/100 Kg seed) [Bu/acre] | Yield Trial 2 (corn; 30 g/100 Kg seed) [Bu/acre] | Yield Trial 1 (corn; 60 g/100 Kg seed) [Bu/acre] | Yield Trial 2 (corn; 60 g/100 Kg seed) [Bu/acre] | Yield Trial 2 (corn; 90 g/100 Kg seed) [Bu/acre] | Efficacy against Fusarium verticillioides (av. of 3 isolates) (Fusarium verticillioides) [% Abbott] | Efficacy against Colletotrichum graminicola (av. 2 isolates) [4] [% Abbott] | Final Stand ([1]; 300 g ai/100 kg seed) | Final Stand ([1]; 400 g ai/100 kg seed)
1 | OC(Cc1ccccc1Cl)(Cn1nc[nH]c1=S)C1(Cl)CC1 (centres unmarked) [Prothioconazole, prothioconazole] | 4.88 | 4.75 | 4.58 | 4.92 | 1.6 | 172.4 | 173.6 | 174 | 177.1 | 176.6 | 178.6 | 178.3 | 175.2 | 47 | 51 | – | –
2 | CO/N=C(/C1=NOCCO1)c1ccccc1Oc1ncnc(Oc2ccccc2Cl)c1F [Fluoxastrobin, fluoxastrobin] | 4.79 | 4.67 | 4.63 | 4.83 | 1.5 | 169.4 | 172 | 171.8 | 175.9 | 175.9 | 179.1 | 177.6 | 176.3 | 3 | 88 | 4.58 | 4.99
